Test results reported in article PMC6968633, “Synthesis, antibacterial and anticancer activity, and docking study of aminoguanidines containing an alkynyl moiety” (Journal of Enzyme Inhibition and Medicinal Chemistry, 2019).
Converted amounts (≈) assume the structure as drawn. Where two headings read alike, the source gives them in different places.

Legend:
[1] = test system: Staphyiococcus aureus CMCC 25923; test: Antibacterial MIC, serial dilution; assay type: cell-based, Staphylococcus aureus
Protocol: (§1) Test bacteria were grown to mid-log phase in Mueller–Hinton broth (MHB) or Tryptone Soya Broth (TSB) and diluted 1000-fold in the same medium. Bacteria (10^5 CFU/mL) were inoculated into MHB or TSB and dispensed at 0.2 ml/well into a 96-well microtiter plate. As positive controls, gatifloxacin, moxifloxacin, norfloxacin, oxacillin, and penicillin were used. […] Bacterial growth was determined by measuring the absorption at 630 nm using a microplate reader. All experiments were carried out three times.
(§2) The evaluation of antibacterial activity of all compounds (3a–3j and 6a–6k) was performed by a serial dilution method to determine the MIC against a panel of pathogens comprising five Gram-positive strains (S. aureus (CMCC(B) 26003 and CMCC 25923), Streptococcus mutans BNCC 336931, Enterococcus faecalis CMCC 29212, and Bacillus subtilis CMCC 63501), four Gram-negative strains (E. coli (CMCC 25922 and CMCC 44568) and P. aeruginosa (CMCC 27853 and CMCC 10104)), as well as three methicillin-resistant clinical isolates (S. aureus ATCC 43300 and ATCC 33591, P. aeruginosa ATCC BAA-2111). The results are described in Tables 1 and 2. Gatifloxacin, moxifloxacin, norfloxacin, oxacillin, and penicillin were used as positive controls.

[2] = test system: Staphylococcus aureus CMCC(B)26003; test: Antibacterial MIC, serial dilution; assay type: cell-based
Protocol: as §1, §2

[3] = test system: Pseudomonas aeruginosa CMCC 10104; test: Antibacterial MIC, serial dilution; assay type: cell-based; details: P. aeruginosa CMCC 10104, 24 h, 37 °C
Protocol: as §1, §2

[4] = test system: Streptococcus mutans BNCC 336931; test: Antibacterial MIC, serial dilution; assay type: cell-based; details: S. mutans BNCC 336931, 24 h, 37 °C
Protocol: as §1, §2

[5] = test system: Escherichia coli CMCC 44568; test: Antibacterial MIC, serial dilution; assay type: cell-based
Protocol: as §1, §2

[6] = test system: Escherichia coli CMCC 25922; test: Antibacterial MIC, serial dilution; assay type: cell-based
Protocol: as §1, §2

[7] = test system: Bacillus subtilis CMCC 63501; test: Antibacterial MIC, serial dilution; assay type: cell-based
Protocol: as §1, §2

[8] = test system: Enterococcus faecalis CMCC 29212; test: Antibacterial MIC, serial dilution; assay type: cell-based; details: E. faecalis CMCC 29212, 24 h, 37 °C
Protocol: as §1, §2

[9] = test system: Pseudomonas aeruginosa CMCC 27853; test: Antibacterial MIC, serial dilution; assay type: cell-based
Protocol: as §1, §2

[10] = test system: Staphylococcus aureus ATCC 33591; test: Antibacterial MIC, multidrug-resistant clinical isolate; assay type: cell-based; details: multidrug-resistant S. aureus ATCC 33591
Protocol: as §1, §2

[11] = test system: Staphylococcus aureus ATCC 43300; test: as above; assay type: cell-based; details: multidrug-resistant S. aureus ATCC 43300
Protocol: as §1, §2

[12] = Staphylococcus aureus, CMCC25923, S. aureus CMCC 25923, 24 h, 37 °C, read-out: MIC
[13] = Staphylococcus aureus, S. aureus CMCC(B)26003, 24 h, 37 °C, read-out: MIC
[14] = Pseudomonas aeruginosa, CMCC10104, read-out: MIC
[15] = Streptococcus mutans, BNCC336931, read-out: MIC
[16] = Escherichia coli, CMCC44568, E. coli CMCC 44568, 24 h, 37 °C, read-out: MIC
[17] = Escherichia coli, CMCC25922, E. coli CMCC 25922, 24 h, 37 °C, read-out: MIC
[18] = Bacillus subtilis, CMCC63501, B. subtilis CMCC 63501, 24 h, 37 °C, read-out: MIC
[19] = Enterococcus faecalis, CMCC29212, read-out: MIC
[20] = Pseudomonas aeruginosa, CMCC27853, P. aeruginosa CMCC 27853, 24 h, 37 °C, read-out: MIC
[21] = Staphylococcus aureus, ATCC33591, read-out: MIC
[22] = Staphylococcus aureus, ATCC43300, read-out: MIC
[23] = Escherichia coli, CMCC44568, 24 h

Compound | MIC [1, 12] | MIC [2, 13] | MIC [3, 14] | MIC [4, 15] | MIC [5, 16] | MIC [6, 17] | MIC [7, 18] | MIC [8, 19] | MIC [9, 20] | melting point | other results
N=C(N)NN=Cc1ccc(C#CC#Cc2cccc(F)c2)cc1 [Compound 6c, 2-(4-((3-Fluorophenyl)buta-1,3-diyn-1-yl)benzylidene)hydrazine-1-carboximidamide] | 128 µg/mL (≈ 421 µM) | 128 µg/mL (≈ 421 µM) | 4 µg/mL (≈ 13.1 µM) | 0.5 µg/mL (≈ 1.64 µM) | > 128 µg/mL | 2 µg/mL (≈ 6.57 µM) | 2 µg/mL (≈ 6.57 µM) | 0.5 µg/mL (≈ 1.64 µM) | > 128 µg/mL | 186 to 190 °C | –
N=C(N)NN=Cc1ccc(C#CC#Cc2cccc(Cl)c2)cc1 [Compound 6f, 2-(4-((3-Chlorophenyl)buta-1,3-diyn-1-yl)benzylidene)hydrazine-1-carboximidamide] | 8 µg/mL (≈ 24.9 µM) | 1 µg/mL (≈ 3.12 µM) | 16 µg/mL (≈ 49.9 µM) | 0.5 µg/mL (≈ 1.56 µM) | 32 µg/mL (≈ 99.8 µM) | 4 µg/mL (≈ 12.5 µM) | 4 µg/mL (≈ 12.5 µM) | 0.5 µg/mL (≈ 1.56 µM) | > 128 µg/mL | 198 to 201 °C | –
N=C(N)NN=Cc1ccc(C#CC#Cc2ccccc2Br)cc1 [Compound 6h, 2-(4-((2-Bromophenyl)buta-1,3-diyn-1-yl)benzylidene)hydrazine-1-carboximidamide] | 32 µg/mL (≈ 87.6 µM) | 1 µg/mL (≈ 2.74 µM) | 8 µg/mL (≈ 21.9 µM) | 1 µg/mL (≈ 2.74 µM) | 128 µg/mL (≈ 350 µM) | 8 µg/mL (≈ 21.9 µM) | 2 µg/mL (≈ 5.48 µM) | 0.5 µg/mL (≈ 1.37 µM) | > 128 µg/mL | 217 to 219 °C | –
N=C(N)NN=Cc1ccc(C#CC#Cc2ccc(Br)cc2)cc1 [Compound 6j, 2-(4-((4-Bromophenyl)buta-1,3-diyn-1-yl)benzylidene)hydrazine-1-carboximidamide] | > 128 µg/mL | 128 µg/mL (≈ 350 µM) | > 128 µg/mL | > 128 µg/mL | > 128 µg/mL | > 128 µg/mL | > 128 µg/mL | 128 µg/mL (≈ 350 µM) | > 128 µg/mL | 227 to 230 °C | –
COc1c(N2C[C@@H]3CCCN[C@@H]3C2)c(F)cc2c(=O)c(C(=O)O)cn(C3CC3)c12 [Moxifloxacin, reference compound] | – | – | 4 µg/mL (≈ 9.96 µM) | 0.5 µg/mL (≈ 1.25 µM) | – | – | – | – | – | – | MIC [10, 21]: 0.25 µg/mL (≈ 0.623 µM); MIC [11, 22]: 0.5 µg/mL (≈ 1.25 µM); MIC ([1]; Staphylococcus aureus, CMCC25923, 24 h): 0.125 µg/mL (≈ 0.311 µM); MIC ([2]; Staphylococcus aureus, 24 h): 0.125 µg/mL (≈ 0.311 µM); MIC [5, 23]: 0.125 µg/mL (≈ 0.311 µM); MIC ([6]; Escherichia coli, CMCC25922, 24 h): 0.125 µg/mL (≈ 0.311 µM)
Cc1onc(-c2ccccc2)c1C(=O)N[C@@H]1C(=O)N2[C@@H]1SC(C)(C)[C@@H]2C(=O)O [Oxacillin, reference compound] | 0.125 µg/mL (≈ 0.311 µM) | 0.125 µg/mL (≈ 0.311 µM) | 128 µg/mL (≈ 319 µM) | 0.125 µg/mL (≈ 0.311 µM) | – | 128 µg/mL (≈ 319 µM) | – | 128 µg/mL (≈ 319 µM) | – | – | MIC [10, 21]: 8 µg/mL (≈ 19.9 µM); MIC [11, 22]: 64 µg/mL (≈ 159 µM); MIC [5, 23]: > 128 µg/mL; MIC ([7]; Bacillus subtilis, CMCC63501, 24 h): > 128 µg/mL; MIC ([9]; Pseudomonas aeruginosa, CMCC27853, 24 h): > 128 µg/mL
Penicillin [reference compound] | – | – | – | – | – | – | – | – | – | – | MIC [10]: >32 µg/mL; MIC ([10]; listed as penicillin): > 32 µg/mL; MIC [11]: 32 µg/mL; MIC ([1]; S. aureus CMCC 25923, 24 h, 37 °C): 0.125 µg/mL; MIC ([2]; S. aureus CMCC(B)26003, 24 h, 37 °C): 0.125 µg/mL; MIC [3]: 32 µg/mL; MIC [4]: 0.125 µg/mL; MIC ([5]; E. coli CMCC 44568, 24 h, 37 °C): >128 µg/mL; MIC ([6]; E. coli CMCC 25922, 24 h, 37 °C): 128 µg/mL; MIC ([7]; B. subtilis CMCC 63501, 24 h, 37 °C): 128 µg/mL; MIC [8]: 128 µg/mL; MIC ([9]; P. aeruginosa CMCC 27853, 24 h, 37 °C): >128 µg/mL
